Test results taken from US7528235B2, “Multi-functional antibodies” (The Regents of the Univarsity of California, priority 2003, dated 2009).
Values belong to the molecule of their own block, whether it stands above or below them.

What was measured:
2D12.5 = assay: relative binding curves of 2D12.5 for Y-DOTA isomers and Y-DOTA molecules with different sidechain locations; parameters: species or system murine; conditions: for relative binding affinity, different sidechain locations: Y-DOTA molecules, FIG. 17; for relative binding affinity, Y-DOTA isomers: coordinated metal Y^3+, FIG. 16
Description: FIG. 16 is a graphical display showing the relative binding curves of 2D12.5 for Y-DOTA isomers and Y-DTPA. 2D12.5 binds both the (R)- and (S)-isomers of 2-(4-nitrobenzyl)-DOTA when the coordinated metal is Y^3+ (the same behavior is expected for the other rare earths). The (S)-isomer confers Λ-helicity, while the (R)-isomer confers Δ-helicity to the acetate arms. […] Y-DOTA (no-sidearm) exists is solution as a racemic mixture of the coordination isomers.
FIG. 17 is a graphical display showing the relative binding curves of Y-DOTA molecules with different sidechain locations. […] Evaluation of the crystal structure seems to indicate that shorter substitutions at this position may bind with higher affinity. Substitutions at other locations may yield reasonably high affinitites as well. The (5-Amino-2-methoxy-phenyl)-carboxymethyl)-DOTA analyzed in this experiment was racemic, so it is not clear which isomer binds with higher affinity. The low pKa of the carboxymethyl proton makes it difficult to prepare a chirally pure molecule.

antibody 2D12.5 = assay: competitive immunoassay (ELISA) of metal-DOTA complexes against immobilized Y-DOTA; type: binding, murine; conditions: 37° C., DOTA analog [S]-2-(p-nitrobenzyl)-DOTA
Description: FIG. 13 is graphical display showing the relative binding of metal-DOTA complexes to antibody 2D12.5. A representative set of competitive binding curves obtained from ELISA experiments described in Example 3 below. Error bars (representing the standard error of the mean) are shown, but are generally smaller than the data points.
Elements plotted in the order Sc (open circle), Lu, Yb, Tm, Er, Ho, Y (open diamond), Dy, Tb, Gd, Eu, Sm, Nd, Pr, Ce, La. ΔΔG values relative to Y-DOTA, set at 0. Error bars represent standard error of the mean.
To determine the metal selectivity of the antibody 2D12.5, a competitive immunoassays was used to measure the binding constants of multiple metal-DOTA complexes relative to Y^3+-DOTA.
We examined the monoclonal antibody 2D12.5, initially developed to bind specifically to Y-DOTA for targeted radiotherapy (see, e.g., Goodwin et al., i Cancer Res. 54: 5937-5946 (1994)), in order to determine the scope of its activity. To assess the metal selectivity of antibody 2D12.5, a competitive immunoassay to measure the binding constants of various metal-DOTA complexes relative to the original Y^3+ complex was developed (FIG. 12). Briefly, 2D12.5 was incubated at 37° C. in the presence of immobilized Y-DOTA and a soluble metal-DOTA competitor. […] Binding was measured by standard methods known to those of skill in the art. […]

[1] = test system: (S) nitrobenzyl-DOTA chelates; conditions: for (S) nitrobenzyl-DOTA chelates; cited from earlier work
Janus-DOTA = conditions: for Janus-DOTA, a bivalent form of DOTA; cited from earlier work
[2] = 24 hours after administration of the bound complex; cited from earlier work

Molecule: O=C(O)CN1CCN(CC(=O)O)CCN(CC(=O)O)[C@@H](Cc2ccc([N+](=O)[O-])cc2)CN(CC(=O)O)CC1 (single isomer, unassigned) [(S)-isomer]
- relative binding affinity, different sidechain locations (2D12.5): clearly stronger
- relative binding affinity, Y-DOTA isomers (2D12.5): preferred isomer for binding

Molecule: O=C(O)CN1CCN(CC(=O)O)CCN(CC(=O)O)C(Cc2ccc([N+](=O)[O-])cc2)CN(CC(=O)O)CC1 (single isomer, unassigned; isomer 2) [(R)-isomer, 2-(4-nitrobenzyl)-DOTA]
- relative binding affinity, Y-DOTA isomers (2D12.5): affinity decreases less than an order of magnitude

- relative binding affinity, different sidechain locations (2D12.5): still sufficiently strong
Molecule: (5-Amino-2-methoxy-phenyl)-carboxymethyl)-DOTA

Molecule: Gd-DOTA
- binding strength relative to the original Y^3+ complex (in words) (antibody 2D12.5): bind more tightly than the original Y^3+ complex
- binding strength relative to the original Y^3+ complex (in words) (antibody 2D12.5; listed as Gd^3+): strongest binders

B1: 2D12.5: anti-chelate monoclonal antibody that binds metal chelates of DOTA and similar structures (antibody, listed as Mus musculus, V domains shown)
VH: QVKLQESGPGLVQPSQSLSITCTVSGFSLTDYGVHWVRQSPGKGLEWLGVIWSGGGTAYTAAFISRLNIYKDNSKNQVFFEMNSLQANDTAMYYCARRGSYPYNYFDVWGQGTTVTVSS
VL: QAVVTQESALTTSPGETVTLTCRSSTGAVTTSNYANWVQEKPDHLFTGLIGGNNNRPPGVPARFSGSLIGDKAALTIAGTQTEDEAIYFCALWYSNHWVFGGGTRLTVLG
modifications: murine monoclonal antibody 2D12.5 heavy chain variable domain (VH); murine monoclonal antibody 2D12.5 light chain variable domain (VL)
- binding constant Ks [1]: ≈ 10^8
- binding constant Ks (Janus-DOTA): ≈ 10^8
- 2D12.5 bound to metal chelates present [2]: 74-96%
